Reference: paper PMC11960969, “Mdga2 deficiency leads to an aberrant activation of BDNF/TrkB signaling that underlies autism-relevant synaptic and behavioral changes in mice” (PLOS Biology, 2025)

How the values were obtained:
TrkB signaling pathway = assay: Immunoblotting of TrkB signaling in hippocampal neurons treated with NLGN1 siRNA; format: cell-based, mouse; conditions: NLGN1 knockdown in MDGA2-deficient hippocampal neurons, n = 4
Description: NLGN1-targeting siRNA and scrambled control siRNA were synthesized by GenePharma (Shanghai, China). The sequences were as follows: NLGN1 siRNA sense: 5′-[…]-[…]-3′, NLGN1 siRNA antisense: 5′-[…]-3′. Scrambled control siRNA sense: 5′-[…]-3′, Scrambled control siRNA antisense: 5′-[…]-3′
Plasmids were transfected into HEK293T, SH-SY5Y, and HeLa cells using Turbofect transfection reagent (ThermoFisher), following the manufacturer’s instructions. Primary neurons were transfected with plasmids using Lipofectamine LTX (ThermoFisher, Cat# 15338100) or EntransterTM-H4000 transfection reagent (Engreen Bio-system, Cat# 4000-6), and with siRNAs using Lipofectamine RNAiMAX (ThermoFisher, Cat# 13778100), following manufacturers’ protocols. The transfection efficiency of both Lipofectamine LTX and EntransterTM-H4000 exceeded 50%. […]
Supplementary file pbio.3003047.s003.tif: S3 Fig MDGA2 competes with brain-derived neurotrophic factor (BDNF) for tyrosine kinase B (TrkB) binding. […] The pTyr levels were quantified by densitometry, normalized to total TrkB levels, and then compared to those of WT littermates. n = 4 per group. […] Immunoprecipitated BDNF levels in Het samples were quantified by densitometry, normalized to input levels, and compared to WT controls (set to one arbitrary units). n = 4 per group. […]

TrkB = assay: Biotin pull-down of TrkB after intrahippocampal injection of biotin-peptides; format: in vivo; conditions: 1 μg biotin-conjugated peptide bilaterally into mouse hippocampus, 24 h
ASD animal models = conditions: VRK3-deficient mice and D2-deficient mice with early-life stress; cited from earlier work

NLGN1 siRNA: NLGN1-targeting siRNA, sense 5′-CCUGUGUGGU-UCACUAAUATT-3′ (sense CCUGUGUGGUUCACUAAUATT; antisense UAUUAGUGAACCACACAGGTT; chemistry not given here)
effect on TrkB signaling pathway (TrkB signaling pathway): treated with either vehicle or NLGN1 siRNA

NADRSGSKEGFYMYIETSRPRLEGE [MDGA2-P1, peptide of MDGA2 MAM domain, aa 787–811, biotin-labeled]
binding to TrkB in vivo (biotin pull-down) (TrkB): not P1, bound to TrkB in vivo

O=c1cc(-c2ccccc2)oc2c(O)c(O)ccc12 [7.8-dihydroxyflavone, reference compound]
social deficits and repetitive self-grooming behavior (ASD animal models): rescued both social deficits and repetitive self-grooming behavior
